The record followed here is patent US12129488B2, “Production of brown adipocytes” (SOCIETE DES PRODUITS NESTLE S.A., priority 2018, dated 2024).

Test [1] deals with human brown adipocytes (hiPSC derived BA cells). Put plainly: PET-SCAN imaging of labelled glucose in explanted devices from mice implanted with encapsulated human brown adipocytes. Conditions: mice implanted with brown adipocytes and injected with FSK vs not stimulated; three weeks post-implantation. The class given is in vivo. The procedure: Two groups of mice were implanted with human brown adipocytes (hiPSC derived BA cells) produced by the methods of the present invention and encapsulated in a device subcutaneously. In one group, the mice were injected with forskolin (FSK) to stimulate the brown adipocytes. In the other group, the mice implanted with brown adipocytes were not stimulated by FSK. A control group of mice was implanted with an empty device. All groups were assessed after three weeks post-implantation for in vivo PET-SCAN imaging as well as ex vivo PET-SCAN imaging of the explanted device.

Test [2] concerns human BA cells (hiPSC derived brown adipocytes). Put plainly: Calorimetric/respiration measurements in mice implanted with human BA cells after NE stimulation. The class given is in vivo. As to conditions: implanted with human BA cells vs empty devices, one week post-implantation.
Experimental: Measures of respiration quotient (DeltaVO2) of mice implanted with human BA cells (IBAT) or empty devices (EMPTY) treated with Norepinephrine (NE) for 1 hour. The mice are either surgically depleted for endogenous murine BA tissue (BATr) or treated at thermo-neutrality to inactivate the endogenous murine BA tissue (Therm). Calorimetric analyses were performed on group of mice implanted with encapsulated human brown adipocytes or empty devices. One group of mice was depleted of endogenous murine BA tissue by surgery and another group was maintained at thermoneutrality for inactivation of the endogenous murine BA tissue. The two groups were implanted with either human BA cells (hiPSC derived brown adipocytes) or empty devices. After one week post-implantation, each group of mice was stimulated with Norepinephrine (NE) (BA stimulation) to assess uncoupled respiration increase. The four sub-groups were analysed for calorimetry measurements as a readout of the respiration index induced by human brown adipocytes.
The next test deals with paraxial mesoderm cells. Put plainly: Brown adipocyte differentiation of dissociated paraxial mesoderm cells in BAD1/BAD2 medium. As to conditions: SB431542 included in BAD1 medium, 2D culture of dissociated paraxial mesoderm cells. The class given is cell-based, human. On the procedure: Proceeding from monolayer of pluripotent stem cells (PSC) to spherical culture (Sph) to primitive streak (PS) to paraxial mesoderm (PM). Cells are then dissociated and cultured in 2D in specific BAD1 medium that contains TGFβ signalling inhibitor, SB431542 which is an activin inhibitor. […] In a second step, cells are cultured in BAD2 medium allowing TGFβ signalling to be active as SB431542 is removed.
(§1) Brown adipocyte (BA) differentiation was accomplished using two sequential media formulations designated BAD1 and BAD2. BAs were derived by first dissociating the PM spheres into single-cell suspension. Briefly, PM spheres were removed from the suspension plates and allowed to gravity sediment in a conical tube. The medium was aspirated carefully and the spheres gently washed once with excess DPBS without calcium or magnesium. The spheres were allowed to settle and the DPBS aspirated. The spheres were resuspended in 5 mL of RT Accumax® (Innovative Cell Technologies, San Diego, CA) and placed on a single speed rotating mixer for 20-30 minutes until a single-cell suspension was achieved. The cells were subsequently filtered through a 100 μm filter (ThermoFisher, Waltham, MA) into a 50 mL conical tube, washed with DPBS and centrifuged at 200 g for 4 minutes at RT; the resulting supernatant was aspirated and the cells resuspended in BAD1 medium for counting using a haemocytometer. […]

The subject of a further test is UCP1. Description: UCP1 expression analysis (qPCR), long term versus short term SB431542 exposure during BA differentiation. The class given is cell-based, human. Conditions: continued use of SB431542 instead of removal in BAD2 medium. The procedure: UCP1 expression analysis between long term (+SB) or short term (−SB) SB431542 exposure. Long term SB exposure includes SB431542 in the medium during the entire BA differentiation beginning immediately after plating dissociated paraxial mesoderm cells. Short term SB exposure includes SB431542 in the medium during only the first 8 days beginning immediately after plating dissociated paraxial mesoderm cells. Those samples marked “+FSK” received 10 μM Forskolin for 4 hours. Day numbers are the number of days after paraxial mesoderm differentiation. All samples are relative to iPSC using 18S rRNA as the endogenous control.
as §1, with “achieved.” for “achieved. The cells were subsequently filtered through a 100 μm filter (ThermoFisher, Waltham, MA) into a 50 mL conical tube, washed with DPBS and centrifuged at 200 g for 4 minutes at RT; the resulting supernatant was aspirated and the cells resuspended in BAD1 medium for counting using a haemocytometer.”

For the compound `C=C[C@@]1(C)CC(=O)[C@]2(O)[C@@]3(C)[C@@H](O)CCC(C)(C)[C@@H]3[C@H](O)[C@H](OC(C)=O)[C@@]2(C)O1` [FSK, forskolin], the “signal of labelled glucose, PET-SCAN imaging ex vivo” value in test [1] is given as “increased signal of labelled glucose”.
Turning to `NC[C@H](O)c1ccc(O)c(O)c1` [NE, Norepinephrine], the results for the “respiration index (calorimetry)” value in test [2] (mice at thermoneutrality) and in test [2] (mice surgically depleted of endogenous murine BA tissue) were “slightly but not significantly improved” and “significant increased respiration index”, respectively.
Regarding `NC(=O)c1ccc(-c2nc(-c3ccc4c(c3)OCO4)c(-c3ccccn3)[nH]2)cc1` [SB431542], in the test on paraxial mesoderm cells, the “appearance of vascular endothelium and cardiac myocyte development from contaminating lateral plate mesoderm” value is “reduces appearance of vascular endothelium and cardiac myocyte development”. In addition, the “kinetics of differentiation and UCP1 induction and expression” value with UCP1 is “retards proper kinetics and perturbs proper UCP1 induction and expression”.
